# According to patent publication US10376476B2, “Panicein compounds, compositions and uses thereof” (CENTRE NATIONAL DE LA RECHERCHE SCIENTIFIQUE, priority 2014, dated 2019):
# How the values were obtained:
# [1] = biological target: T1, human Patched (hPtc) expressed in S. cerevisiae (Homo sapiens, UniProt Q13635); test: Screening test 1: resistance of Patched-expressing yeast to doxorubicin (yeast growth, absorbance 600 nm); format: cell-based; details: 10 μg/mL fraction or purified compound, 10 μM doxorubicin
# T1 construct: MAP; expressed in transfected cells; host or cells: Saccharomyces cerevisiae K699
# T1 sequence (Q13635 1-1447): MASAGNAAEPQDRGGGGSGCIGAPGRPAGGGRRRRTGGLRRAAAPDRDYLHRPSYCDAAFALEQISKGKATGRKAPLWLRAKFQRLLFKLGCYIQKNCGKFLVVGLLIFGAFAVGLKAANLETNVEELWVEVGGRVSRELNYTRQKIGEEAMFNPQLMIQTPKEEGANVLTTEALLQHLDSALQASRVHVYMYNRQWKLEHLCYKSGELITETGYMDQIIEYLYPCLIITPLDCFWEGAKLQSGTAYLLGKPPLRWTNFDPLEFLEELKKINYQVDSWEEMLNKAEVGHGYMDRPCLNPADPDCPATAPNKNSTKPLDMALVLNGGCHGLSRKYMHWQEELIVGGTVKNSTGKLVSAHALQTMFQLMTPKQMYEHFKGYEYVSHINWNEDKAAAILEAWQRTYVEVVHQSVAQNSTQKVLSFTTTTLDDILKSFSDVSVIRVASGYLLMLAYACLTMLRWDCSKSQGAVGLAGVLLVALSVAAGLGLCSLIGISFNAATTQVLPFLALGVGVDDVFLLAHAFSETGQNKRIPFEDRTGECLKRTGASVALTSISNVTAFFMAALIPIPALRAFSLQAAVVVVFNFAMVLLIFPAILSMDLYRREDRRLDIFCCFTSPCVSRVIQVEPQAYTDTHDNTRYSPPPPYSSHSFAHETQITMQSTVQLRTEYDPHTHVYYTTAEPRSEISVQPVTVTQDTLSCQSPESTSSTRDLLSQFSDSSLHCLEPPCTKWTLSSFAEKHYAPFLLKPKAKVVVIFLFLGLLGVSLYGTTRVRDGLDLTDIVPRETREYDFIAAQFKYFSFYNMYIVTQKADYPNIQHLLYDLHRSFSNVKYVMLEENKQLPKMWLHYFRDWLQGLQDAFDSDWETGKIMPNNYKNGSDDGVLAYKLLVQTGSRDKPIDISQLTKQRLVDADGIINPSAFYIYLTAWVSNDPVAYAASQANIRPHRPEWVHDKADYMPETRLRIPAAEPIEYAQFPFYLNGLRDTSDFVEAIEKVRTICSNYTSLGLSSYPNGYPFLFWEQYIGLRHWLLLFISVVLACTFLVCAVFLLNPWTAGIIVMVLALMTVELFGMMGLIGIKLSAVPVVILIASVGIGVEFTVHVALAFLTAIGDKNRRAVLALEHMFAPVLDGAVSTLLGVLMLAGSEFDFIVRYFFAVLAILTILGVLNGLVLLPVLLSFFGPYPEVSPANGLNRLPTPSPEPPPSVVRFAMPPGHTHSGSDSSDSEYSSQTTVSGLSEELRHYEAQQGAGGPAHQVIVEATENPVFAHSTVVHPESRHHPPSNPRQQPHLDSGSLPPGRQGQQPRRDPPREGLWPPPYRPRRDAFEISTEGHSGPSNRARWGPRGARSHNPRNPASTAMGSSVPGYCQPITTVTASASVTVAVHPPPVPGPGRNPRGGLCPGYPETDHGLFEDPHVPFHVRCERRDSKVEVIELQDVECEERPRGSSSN
# Description: A. Haliclona mucosa sponge. B. Haliclona mucosa methanolic fraction contains inhibitors of the resistance of Patched-expressing yeasts to doxorubicin. Yeast S. cerevisiae expressing hPtc were grown in 96 well plates in the presence of 10 μg/mL of the methanolic fraction of Haliclona mucosa crude extract dissolved in DMSO and in presence or not of 10 μM of doxorubicin (dxr). The growth of yeasts was measured by absorbance at 600 nm and the results shown are the mean of three independent experiments. C. Purification profile of Haliclona mucosa methanolic fraction. A preparative phenyl-hexyl HPLC column was used with a gradient starting at (47 H20: 53 ACN: 0.1 TFA) to (0 H20: 100 ACN: 0.1 TFA), flow rate: 10.0 mL/min, injection volume: 75 μl at 100 mg/mL. […] Purified compounds dissolved in DMSO were added (at 10 μg/mL) to the growth medium containing or not 10 μM dxr. The growth of yeasts was measured by absorbance at 600 nm.
# S. cerevisiae expressing human Patched were grown in 10 mL of minimal medium (supplemented with 2% of glucose and amino acids cocktail without leucine) at 30° C. When the exponential phase was obtained (OD600=5-7), yeasts were precultured in the same medium to OD600=1-2. Yeasts were then diluted in rich medium containing 2% of glucose in 96-well plates. Methanolic or purified fractions (at 10 μg/mL final concentration) were added in all wells, and doxorubicin (10 μM final concentration) was added in half of the wells. Plates were incubated at 18° C. on a shaker at 1250 rpm (microtitre plate shaker SSL5 Stuart) and absorbance at 600 nm was recorded for about 72 hours.
# Inventors cultured yeast S. cerevisiae expressing human Patched in their plasma membrane as previously described (Bidet et al., 2011, 2012) in 96 well plates. Methanolic fraction of Haliclona mucosa crude extracts was prepared, dissolved in DMSO at 10mg/mL and added at a final concentration of 10 μg/mL to the yeast culture medium supplemented or not with doxorubicin (dxr). As previously reported (Bidet et al., 2012), human Patched confers a resistance to growth inhibition by dxr, an […] used to treat a wide range of cancers (FIG. 2B).
# [2] = biological target: T2, human Patched (hPtc) expressed in yeasts (Homo sapiens, UniProt Q13635); test: Resistance of hPtc-expressing yeasts to other chemotherapeutic agents (yeast growth, absorbance 600 nm); format: cell-based; details: 10 μM paniceins; for inhibition of the resistance of yeasts to vemurafenib: 10 μM vemurafenib; for inhibition of the resistance of yeasts to cisplatine: 50 μM cisplatine; for inhibition of the resistance of yeasts to dacarbazine: 2 mM dacarbazine
# T2 construct: MAP; expressed in transfected cells; host or cells: Saccharomyces cerevisiae K699
# T2 sequence (Q13635 1-1447): T1 sequence (Q13635 1-1447)
# Description: Paniceins were added at a final concentration of 10 μM to the yeast growth medium containing 2 mM of dacarbazine (A), 50 μM of cisplatine (B), or 10 μM of vemurafenib (C). The growth of hPtc-expressing-yeasts was measured by absorbance at 600 nm.
# The expression of human Patched in yeasts confers to these yeasts the ability to grow in presence of other chemotherapeutic agents currently used to treat melanoma such as dacarbazine or cisplatine.
smiles,measurement,setting,value
"C/C(=C\Cc1cc(O)ccc1O)CCc1c(C)c(O)c(O)c(C=O)c1C [P2, Panicein C]",inhibition of the resistance (growth) of hPtc-expressing yeast in presence of dxr,[1],strongly inhibit
same,inhibition of the resistance of yeasts to vemurafenib,[2],inhibits the resistance
same,inhibition of the resistance of yeasts to cisplatine,[2],inhibits the resistance
same,inhibition of the resistance of yeasts to dacarbazine,[2],inhibits the resistance
"C/C(=C\Cc1cc(O)ccc1O)CCc1c(C)cc(O)c(C=O)c1C [P3, Panicein B3]",inhibition of the resistance (growth) of hPtc-expressing yeast in presence of dxr,[1],strongly inhibit
same,inhibition of the resistance of yeasts to vemurafenib,[2],inhibits the resistance
same,inhibition of the resistance of yeasts to cisplatine,[2],inhibits the resistance
same,inhibition of the resistance of yeasts to dacarbazine,[2],inhibits the resistance
"Cc1cc(O)c(C=O)c(C)c1CCC1(C)C=Cc2cc(O)ccc2O1 (stereo not shown) [P4, Panicein B2]",inhibition of the resistance (growth) of hPtc-expressing yeast in presence of dxr,[1],lighter
"COc1cc(C)c(CC/C(C)=C/Cc2cc(O)ccc2O)c(C)c1C [P5, Panicein A hydroquinone]",inhibition of the resistance (growth) of hPtc-expressing yeast in presence of dxr,[1],strongly inhibit
same,inhibition of the resistance of yeasts to vemurafenib,[2],inhibits the resistance
same,inhibition of the resistance of yeasts to cisplatine,[2],inhibits the resistance
same,inhibition of the resistance of yeasts to dacarbazine,[2],inhibits the resistance
